# Test results published in PMC2673432 (Nucleic Acids Research, 2009).
# Target: human L3MBTL2 4-MBT-repeat domain (4MBT, residues 170–625) (Homo sapiens, UniProt Q969R5)
# Experiment: Isothermal titration calorimetry
# Format: binding
# Conditions: ITC, 25°C, pH 7.5, 200 mM NaCl; values in Supplementary Figure 3
# human L3MBTL2 4-MBT-repeat domain (4MBT, residues 170–625), sequence (Q969R5 170-625): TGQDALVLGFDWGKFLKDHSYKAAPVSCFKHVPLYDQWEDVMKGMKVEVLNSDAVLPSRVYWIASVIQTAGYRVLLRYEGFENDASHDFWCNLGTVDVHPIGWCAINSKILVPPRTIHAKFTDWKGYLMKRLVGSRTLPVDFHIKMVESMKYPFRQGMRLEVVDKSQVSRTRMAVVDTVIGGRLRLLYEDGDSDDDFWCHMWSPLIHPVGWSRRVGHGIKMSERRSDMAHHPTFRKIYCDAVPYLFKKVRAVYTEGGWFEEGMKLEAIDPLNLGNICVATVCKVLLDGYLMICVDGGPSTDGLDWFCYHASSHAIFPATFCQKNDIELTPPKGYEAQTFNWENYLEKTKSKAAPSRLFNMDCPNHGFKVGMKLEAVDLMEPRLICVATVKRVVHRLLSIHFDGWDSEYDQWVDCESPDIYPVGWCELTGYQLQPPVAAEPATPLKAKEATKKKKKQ
smiles,measurement,value
"CNCCCC[C@H](N)C(=O)O [free mono-methylated lysine, mono-methylated lysine]",Relative binding affinity (in words),binds mono- and di-methylated lysine centrally located in a peptide more tightly than free mono-methylated lysine
